Legend:
[1] = complexation properties with ^225Ac; format: physicochemical; conditions: compared with non-functionalised chelating agents EDTA, DTPA, DOTA, PEPA, HEHA, EDTMP
Protocol: (§1) Different non-functionalised chelating agents (commercially available or readily synthesised in the laboratory) bearing aminocarboxylate groups (EDTA, DTPA, DOTA, PEPA, and HEHA) or aminophosphonate groups (EDTMP) were tested for their complexation properties with ^225Ac and ^213Bi. […] Polyaza polycarboxylic macrocycles are known to form thermodynamically stable complexes with large metal ions such as actinides and lanthanides.

[2] = complexation properties with ^213Bi; format: physicochemical; conditions: non-functionalised chelating agents tested
Protocol: as §1

- ^225Ac complexation [1]: best candidate
- chelation of ^213Bi [2]: good chelating agent
Compound: O=C(O)CN1CCN(CC(=O)O)CCN(CC(=O)O)CCN(CC(=O)O)CCN(CC(=O)O)CCN(CC(=O)O)CC1 [HEHA, 1,4,7,10,13,16-hexacarboxylmethyl-1,4,7,10,13,16-hexaazacyclooctadecane]

From US7132513B2, “Bifunctional chelating agent” (European Community, priority 2000, dated 2006)
